Laboratory results reported in ChEMBL document CHEMBL4420076, “Amylin and calcitonin receptor agonist” (2017).
Numbered stars: 1 amine (or outer) side, 2 acyl side, 3 side chain; on linkers, the order of the positions; unused ones are H or OH. Peptide text beside a SMILES is read from it. * marks the point of attachment. C20 diacid = O=C(O)CCCCCCCCCCCCCCCCCCC(=O)*; C18 diacid = O=C(O)CCCCCCCCCCCCCCCCC(=O)*; γGlu = O=C(O)[C@H](CCC(=O)[*:2])N[*:1]

Assays:
[1] = biological target: T1, Amylin receptor AMY3; CALCR/RAMP3 (Homo sapiens, UniProt O60896+P30988); assay: Agonist activity at human amylin receptor expressed in BHK570 cells co-expressing RAMP3 assessed as increase in intracellular cAMP concentration incubated for 3 hrs in absence of albumin by CRE luciferase reporter gene assay; assay type: functional, cell-based
T1 sequence (P30988 whole entry): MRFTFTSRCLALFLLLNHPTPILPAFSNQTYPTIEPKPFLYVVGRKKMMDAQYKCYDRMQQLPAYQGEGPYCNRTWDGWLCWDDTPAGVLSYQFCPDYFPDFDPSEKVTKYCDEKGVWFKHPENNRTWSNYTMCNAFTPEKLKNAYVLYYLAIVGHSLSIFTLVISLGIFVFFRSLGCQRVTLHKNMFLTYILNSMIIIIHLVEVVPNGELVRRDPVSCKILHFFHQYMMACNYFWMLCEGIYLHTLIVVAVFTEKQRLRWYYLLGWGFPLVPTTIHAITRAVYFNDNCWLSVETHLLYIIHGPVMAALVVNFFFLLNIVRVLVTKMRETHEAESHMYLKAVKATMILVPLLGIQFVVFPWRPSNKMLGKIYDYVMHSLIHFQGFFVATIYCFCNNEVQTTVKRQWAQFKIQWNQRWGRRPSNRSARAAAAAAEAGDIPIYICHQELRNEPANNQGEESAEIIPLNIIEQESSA
T1 sequence (O60896 whole entry): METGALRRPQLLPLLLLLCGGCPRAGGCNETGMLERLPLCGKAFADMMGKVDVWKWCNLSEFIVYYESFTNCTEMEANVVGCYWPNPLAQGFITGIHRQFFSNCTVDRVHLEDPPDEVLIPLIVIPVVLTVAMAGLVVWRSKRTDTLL

Calcitonin receptor [2] = biological target: T2, Calcitonin receptor (Homo sapiens, UniProt P30988); assay: Agonist activity at human calcitonin receptor expressed in BHK570 cells assessed as increase in intracellular cAMP concentration incubated for 3 hrs in absence of albumin by CRE luciferase reporter gene assay; assay type: functional, cell-based
T2 sequence (P30988 whole entry): T1 sequence (P30988 whole entry)

[3] = Solubility in 100 mM glycylglycine buffer at pH 3.0 incubated for 18 hrs by UPLC analysis; assay type: physicochemical
[4] = Solubility in 100 mM bistrispropane buffer at pH 6.0 incubated for 18 hrs by UPLC analysis; assay type: physicochemical
[5] = Solubility in 100 mM bistrispropane buffer at pH 6.5 incubated for 18 hrs by UPLC analysis; assay type: physicochemical
[6] = Solubility in 100 mM bistrispropane buffer at pH 7.0 incubated for 18 hrs by UPLC analysis; assay type: physicochemical
[7] = Solubility in 100 mM bistrispropane buffer at pH 7.5 incubated for 18 hrs by UPLC analysis; assay type: physicochemical
[8] = Solubility in 100 mM bistrispropane buffer at pH 8.0 incubated for 18 hrs by UPLC analysis; assay type: physicochemical
[9] = biological target: T1, Amylin receptor AMY3; CALCR/RAMP3; assay: Displacement of [125I]-labeled rat amylin from human amylin receptor expressed in BHK tkts13 whole cells co-expressing RAMP3 incubated for 60 mins by scintillation proximity assay; assay type: cell-based
Calcitonin receptor [10] = biological target: T2, Calcitonin receptor; assay: Agonist activity at human calcitonin receptor expressed in BHK570 cells assessed as increase in intracellular cAMP concentration incubated for 3 hrs in presence of 10% FBS by CRE luciferase reporter gene assay; assay type: functional, cell-based
[11] = Solubility in 100 mM glycylglycine buffer at pH 4.0 incubated for 18 hrs by UPLC analysis; assay type: physicochemical

| SMILES | EC50 [1] [nM] | EC50 (Calcitonin receptor [2]) [nM] | solubility at 18 h [3] [µM] | solubility at 18 h [4] [µM] | solubility at 18 h [5] [µM] | solubility at 18 h [6] [µM] | solubility at 18 h [7] [µM] | solubility at 18 h [8] [µM] | IC50 [9] [nM] | EC50 (Calcitonin receptor [10]) [nM] | solubility at 18 h [11] [µM] |
| --- | --- | --- | --- | --- | --- | --- | --- | --- | --- | --- | --- |
| CC[C@H](C)[C@H](NC(=O)[C@H](C)NC(=O)[C@@H](NC(=O)[C@H](CO)NC(=O)[C@@H](NC(=O)[C@H](CCC(=O)O)NC(=O)[C@H](CO)NC(=O)[C@H](C)NC(=O)[C@H](CCC(=O)O)NC(=O)CCCCCCCCCCCCCCCCC(=O)O)[C@@H](C)CC)[C@@H](C)O)C(=O)N[C@H](C(=O)NCC(=O)N[C@@H](CCCNC(=N)N)C(=O)N[C@@H](CC(C)C)C(=O)N[C@@H](CO)C(=O)N[C@@H](C)C(=O)N[C@@H](CCC(=O)O)C(=O)N[C@@H](CC(C)C)C(=O)N[C@@H](Cc1cnc[nH]1)C(=O)N[C@@H](CCC(=O)O)C(=O)N[C@H](C(=O)N[C@@H](C)C(=O)N[C@H](C(=O)N[C@@H](CC(C)C)C(=O)N1CCC[C@H]1C(=O)N[C@@H](CCCNC(=N)N)C(=O)N[C@H](C(=O)N[C@@H](CCC(=O)O)C(=O)N[C@H](C(=O)NCC(=O)N1CCC[C@H]1C(=O)N[C@@H](CCC(=O)O)C(=O)N[C@@H](CO)C(=O)N1CCC[C@H]1C(N)=O)[C@@H](C)O)[C@@H](C)O)[C@@H](C)O)[C@@H](C)CC)[C@@H](C)CC ({C18 diacid}-EASEISTAIIGRLSAELHEIATLPRTETGPESP-NH2) | 0.01 | 0.006 | ≥ 200 | ≥ 200 | ≥ 200 | ≥ 200 | ≥ 200 | ≥ 200 | 0.998 |  |  |
| CC(C)C[C@H](NC(=O)[C@H](C)NC(=O)[C@H](C)NC(=O)[C@@H](NC(=O)[C@H](CO)NC(=O)[C@H](CC(C)C)NC(=O)[C@H](CCC(=O)O)NC(=O)[C@H](CO)NC(=O)[C@H](C)NC(=O)CC[C@H](NC(=O)CCCCCCCCCCCCCCCCCCC(=O)O)C(=O)O)[C@@H](C)O)C(=O)NCC(=O)N[C@@H](CCCNC(=N)N)C(=O)N[C@@H](CC(C)C)C(=O)N[C@@H](CO)C(=O)N[C@@H](C)C(=O)N[C@@H](CCC(=O)O)C(=O)N[C@@H](CC(C)C)C(=O)N[C@@H](Cc1cnc[nH]1)C(=O)N[C@@H](CCC(=O)O)C(=O)N[C@@H](CC(C)C)C(=O)N[C@@H](C)C(=O)N[C@H](C(=O)N[C@@H](Cc1ccc(O)cc1)C(=O)N1CCC[C@H]1C(=O)N[C@@H](CCCNC(=N)N)C(=O)N[C@H](C(=O)N[C@@H](CCC(=O)O)C(=O)N[C@H](C(=O)NCC(=O)N[C@@H](CO)C(=O)NCC(=O)N[C@@H](CO)C(=O)N[C@@H](Cc1ccc(O)cc1)C(=O)O)[C@@H](C)O)[C@@H](C)O)[C@@H](C)O ({C20 diacid-γGlu}-ASELSTAALGRLSAELHELATYPRTETGSGSY-OH) |  |  | ≥ 200 | ≥ 200 | ≥ 200 | ≥ 200 | ≥ 200 | ≥ 200 | 92 |  |  |
| CC(C)C[C@H](NC(=O)[C@H](C)NC(=O)[C@H](C)NC(=O)[C@@H](NC(=O)[C@H](CO)NC(=O)[C@H](CC(C)C)NC(=O)[C@H](CCC(=O)O)NC(=O)[C@H](CO)NC(=O)[C@H](C)NC(=O)CC[C@H](NC(=O)CCCCCCCCCCCCCCCCCCC(=O)O)C(=O)O)[C@@H](C)O)C(=O)NCC(=O)N[C@@H](CCCNC(=N)N)C(=O)N[C@@H](CC(C)C)C(=O)N[C@@H](CO)C(=O)N[C@@H](C)C(=O)N[C@@H](CCC(=O)O)C(=O)N[C@@H](CC(C)C)C(=O)N[C@@H](Cc1cnc[nH]1)C(=O)N[C@@H](CCC(=O)O)C(=O)N[C@@H](CC(C)C)C(=O)N[C@@H](CO)C(=O)N[C@H](C(=O)N[C@@H](Cc1ccc(O)cc1)C(=O)N1CCC[C@H]1C(=O)N[C@@H](CCCNC(=N)N)C(=O)N[C@H](C(=O)N[C@@H](CCC(=O)O)C(=O)N[C@H](C(=O)NCC(=O)N[C@@H](CO)C(=O)NCC(=O)N[C@@H](CO)C(=O)N1CCC[C@H]1C(N)=O)[C@@H](C)O)[C@@H](C)O)[C@@H](C)O ({C20 diacid-γGlu}-ASELSTAALGRLSAELHELSTYPRTETGSGSP-NH2) | 0.033 | 0.027 | ≥ 200 | ≥ 200 | ≥ 200 | ≥ 200 | ≥ 200 | ≥ 200 |  | 0.03 | ≥ 200 |
| CC[C@H](C)[C@H](NC(=O)[C@H](CCC(=O)O)NC(=O)[C@H](CO)NC(=O)[C@H](C)NC(=O)[C@H](CCC(=O)O)NC(=O)CCCCCCCCCCCCCCCCC(=O)O)C(=O)N[C@@H](CO)C(=O)N[C@H](C(=O)N[C@@H](C)C(=O)N[C@@H](C)C(=O)N[C@@H](CC(C)C)C(=O)NCC(=O)N[C@@H](CCCNC(=N)N)C(=O)N[C@@H](CC(C)C)C(=O)N[C@@H](CO)C(=O)N[C@@H](C)C(=O)N[C@@H](CCC(=O)O)C(=O)N[C@@H](CC(C)C)C(=O)N[C@@H](Cc1cnc[nH]1)C(=O)N[C@@H](CCC(=O)O)C(=O)N[C@@H](CC(C)C)C(=O)N[C@@H](C)C(=O)N[C@H](C(=O)N[C@@H](CC(C)C)C(=O)N1CCC[C@H]1C(=O)N[C@@H](CCCNC(=N)N)C(=O)N[C@H](C(=O)N[C@@H](CCC(=O)O)C(=O)N[C@H](C(=O)NCC(=O)N1CCC[C@H]1C(=O)N[C@@H](CCC(=O)O)C(=O)N[C@@H](CO)C(=O)N1CCC[C@H]1C(N)=O)[C@@H](C)O)[C@@H](C)O)[C@@H](C)O)[C@@H](C)O ({C18 diacid}-EASEISTAALGRLSAELHELATLPRTETGPESP-NH2) | 0.007 |  | ≥ 200 | ≥ 200 | ≥ 200 | ≥ 200 | ≥ 200 | ≥ 200 | 0.429 |  |  |
| CC(C)C[C@H](NC(=O)[C@H](C)NC(=O)[C@H](C)NC(=O)[C@@H](NC(=O)[C@H](CO)NC(=O)[C@H](CC(C)C)NC(=O)[C@H](CCC(=O)O)NC(=O)[C@H](CO)NC(=O)[C@H](C)NC(=O)[C@H](CCC(=O)O)NC(=O)CCCCCCCCCCCCCCCCC(=O)O)[C@@H](C)O)C(=O)NCC(=O)N[C@@H](CCCNC(=N)N)C(=O)N[C@@H](CC(C)C)C(=O)N[C@@H](CO)C(=O)N[C@@H](C)C(=O)N[C@@H](CCC(=O)O)C(=O)N[C@@H](CC(C)C)C(=O)N[C@@H](Cc1cnc[nH]1)C(=O)N[C@@H](CCC(=O)O)C(=O)N[C@@H](CC(C)C)C(=O)N[C@@H](C)C(=O)N[C@H](C(=O)N[C@@H](CC(C)C)C(=O)N1CCC[C@H]1C(=O)N[C@@H](CCCNC(=N)N)C(=O)N[C@H](C(=O)N[C@@H](CCC(=O)O)C(=O)N[C@H](C(=O)NCC(=O)N1CCC[C@H]1C(=O)N[C@@H](CCC(=O)O)C(=O)N[C@@H](CO)C(=O)N1CCC[C@H]1C(=O)O)[C@@H](C)O)[C@@H](C)O)[C@@H](C)O ({C18 diacid}-EASELSTAALGRLSAELHELATLPRTETGPESP-OH) | 0.481 | 0.045 |  |  |  |  |  |  | 298 |  |  |
| CC(C)C[C@H](NC(=O)[C@H](C)NC(=O)[C@H](C)NC(=O)[C@@H](NC(=O)[C@H](CO)NC(=O)[C@H](CC(C)C)NC(=O)[C@H](CCC(=O)O)NC(=O)[C@H](CO)NC(=O)[C@H](C)NC(=O)[C@@H](N)CCC(=O)O)[C@@H](C)O)C(=O)NCC(=O)N[C@@H](CCCNC(=N)N)C(=O)N[C@@H](CC(C)C)C(=O)N[C@@H](CO)C(=O)N[C@@H](C)C(=O)N[C@@H](CCC(=O)O)C(=O)N[C@@H](CC(C)C)C(=O)N[C@@H](Cc1cnc[nH]1)C(=O)N[C@@H](CCC(=O)O)C(=O)N[C@@H](CC(C)C)C(=O)N[C@@H](C)C(=O)N[C@H](C(=O)N[C@@H](CC(C)C)C(=O)N1CCC[C@H]1C(=O)N[C@@H](CCCNC(=N)N)C(=O)N[C@H](C(=O)N[C@@H](CCC(=O)O)C(=O)N[C@H](C(=O)NCC(=O)N1CCC[C@H]1C(=O)N[C@@H](CCC(=O)O)C(=O)N[C@@H](CO)C(=O)N1CCC[C@H]1C(=O)O)[C@@H](C)O)[C@@H](C)O)[C@@H](C)O (H-EASELSTAALGRLSAELHELATLPRTETGPESP-OH) |  |  |  |  |  |  |  |  | 294 |  |  |
